This is an account of results in patent US4727064A, “Pharmaceutical preparations containing cyclodextrin derivatives” (priority 1985, dated 1988).

One data set is described as follows: physchem. The settings on record: for solubility: water. On the procedure: The solutions of solubilizer in water were saturated by stirring with excess of drug at room temperature for about 24 hours. The resulting suspensions were clarified either by filtration through a sintered glass filter or by centrifugation. Concentration of hormones in clarified solutions was measured spectrophotometrically. In these experiments drugs were solubilized with cyclodextrin derivatives with constant degrees of substitution and which are given in the footnote to Table 1.

For data set [1] the following is noted: Table 1, water, cited from earlier work.
[2] abbreviates: hydroxypropyl-β-cyclodextrin in water, Solubility in solubilizer solution.
Where [3] appears, read: data from K. Uekama, Pharmacology International, 61-65 (1985).
[4] abbreviates: hydroxypropyl-β-cyclodextrin in water, Solubility in solubilizer solution, Table 1, hydroxypropyl-β-cyclodextrin in water, degree of substitution 6-7.
Where [5] appears, read: hydroxypropyl-β-cyclodextrin in water, 24 h.
The mark [6] stands for this setting: 50% aqueous carboxamido-β-cyclodextrin, Solubilities of steroids in 50% aqueous solutions of substituted cyclodextrins, Table 3, carboxamido-β-cyclodextrin.
[7] abbreviates: 50% aqueous carboxymethyl-β-cyclodextrin, Solubilities of steroids in 50% aqueous solutions of substituted cyclodextrins, Table 3, carboxymethyl-β-cyclodextrin.
Setting [8] is: 50% aqueous diethylaminoethyl-β-cyclodextrin, Solubilities of steroids in 50% aqueous solutions of substituted cyclodextrins, Table 3, diethylaminoethyl-β-cyclodextrin.
Setting [9] is: 50% aqueous hydroxypropyl-beta-cyclodextrin, Solubilities of steroids in 50% aqueous solutions of hydroxypropyl-β-cyclodextrin, Table 2, d.s. 4.7.
Where [10] appears, read: 50% aqueous hydroxypropyl-beta-cyclodextrin, Solubilities of steroids in 50% aqueous solutions of hydroxypropyl-β-cyclodextrin, Table 2, d.s. 5.7.
Setting [11] is: 50% aqueous hydroxypropyl-beta-cyclodextrin, Solubilities of steroids in 50% aqueous solutions of hydroxypropyl-β-cyclodextrin, Table 2, d.s. 7.0.
Setting [12] is: 50% aqueous hydroxypropyl-beta-cyclodextrin, Solubilities of steroids in 50% aqueous solutions of hydroxypropyl-β-cyclodextrin, Table 2, d.s. 14.
Setting [13] is: data from J. Brotherton, Sex Hormone Pharmacology (1976), p. 36.

SMILES strings stand for the structures. In brackets after ≈: the same amount, converted by molar mass. Counter-ions that a name gives are not always drawn. Like-named read-outs stand apart in the source and are kept apart here.

As usually defined, the solubility is the dissolved amount per volume that the medium holds. Lower therefore signals little dissolved substance. On to `CC1=C(/C=C/C(C)=C/C=C/C(C)=C/C=O)C(C)(C)CCC1` [retinal], for which the concentration in solution in “physchem” (setting [2]) (solubility at 24 h) came to 2.6 mg/mL (≈ 9.14 mM). Further, in “physchem”, the solubility was under 0.07 mg/mL.

In the case of `CC(=O)S[C@@H]1CC2=CC(=O)CC[C@]2(C)[C@H]2CC[C@@]3(C)[C@@H](CC[C@@]34CCC(=O)O4)[C@H]12` [spironolactone], in “physchem” (setting [2]), the concentration in solution (solubility at 24 h) came to 42 mg/mL (≈ 101 mM). For the same molecule, the Solubility in water in data set [1] (setting [3]) is 0.03 mg/mL (≈ 0.072 mM).

As to `C#C[C@]1(O)CC[C@H]2[C@@H]3CCc4cc(OC)ccc4[C@H]3CC[C@@]21C` [ethinylestradiol-3-methyl ether], the solubility at 24 h in “physchem” (setting [2]) worked out at 27 mg/mL (≈ 87 mM). The molecule also returned a solubility in the data set “physchem” of under 1.5 mg/mL.

The molecule `Cn1c(=O)c2[nH]cnc2n(C)c1=O` [theophylline] had a solubility at 24 h in “physchem” (setting [4]) of 11 mg/mL (≈ 61.1 mM). Moreover, the concentration in solution in the data set “physchem” (solubility) came to 8.3 mg/mL (≈ 46.1 mM).

Regarding `O=C1NC(=O)C(c2ccccc2)(c2ccccc2)N1` [diphenylhydantoin], the solubility at 24 h in the data set “physchem” (setting [4]) was 1.7 mg/mL (≈ 6.74 mM). Besides, the Solubility in water in data set [1] (setting [3]) was 0.03 mg/mL (≈ 0.119 mM).

As to `O=[N+]([O-])OCC(CO[N+](=O)[O-])O[N+](=O)[O-]` [nitroglycerin], in “physchem” (setting [4]), the concentration in solution (solubility at 24 h) came to 10.4 mg/mL (≈ 45.8 mM). Moreover, the solubility in “physchem” amounted to 1.25 mg/mL (≈ 5.5 mM).

In the data set “physchem” (setting [4]), `CC1OC(OC2CC(O)C3(CO)C4C(O)CC5(C)C(C6=CC(=O)OC6)CCC5(O)C4CCC3(O)C2)C(O)C(O)C1O` (stereo not shown) [oubain] registered a solubility at 24 h of 80 mg/mL (≈ 137 mM). Further, the solubility in the data set “physchem” was found to be 13 mg/mL (≈ 22.2 mM).

For the molecule `CC1=C(/C=C/C(C)=C/C=C/C(C)=C/C(=O)O)C(C)(C)CCC1` [retinoic acid, choline salt of all trans], the “Solubility in solubilizer solution” value in the data set “physchem” (setting [5]) amounted to 18.8 mg/mL.

In turn, `C[C@@H]1C[C@H]2[C@@H]3CCC4=CC(=O)C=C[C@]4(C)[C@@]3(F)[C@@H](O)C[C@]2(C)[C@@]1(O)C(=O)CO` [dexamethasone] returned a solubility at 24 h in the data set “physchem” (setting [4]) of 24 mg/mL (≈ 61.2 mM). In the data set “physchem”, the concentration in solution (solubility) came to 0.1 mg/mL (≈ 0.255 mM).

For the molecule `CC1=C(/C=C/C(C)=C/C=C/C(C)=C/C(=O)O)C(C)(C)CCC1` [retinoic acid, ethanolamine salt of all trans], the solubility at 24 h in the data set “physchem” (40% hydroxypropyl-β-cyclodextrin, 1% ethanolamine, Solubility in solubilizer solution) was 28.4 mg/mL.

As for `CC(C)NNC(=O)c1ccncc1` [iproniazid phosphate], the solubility at 24 h in the data set “physchem” (setting [2]) came out at 95 mg/mL. The molecule also returned a solubility in the data set “physchem” of 30 mg/mL.

As for `Nc1nc2c(ncn2COCCO)c(=O)[nH]1` [acyclovir], in the data set “physchem”, the Solubility in water result was “insoluble”. For the same molecule, the solubility at 24 h in “physchem” (setting [2]) came to 2.5 mg/mL (≈ 11.1 mM).

`CC1=C(/C=C/C(C)=C/C=C/C(C)=C/C(=O)O)C(C)(C)CCC1` [retinoic acid, sodium salt of all trans]: the “Solubility in solubilizer solution” value in the data set “physchem” (setting [5]) turned out to be 1.6 mg/mL.

As for `Cc1cc(C(C)(C)C)c(O)c(C(C)(C)C)c1` [butylated hydroxytoluene], the Solubility in water entry in “physchem” (Table 1, water) is on record as “insoluble”. In addition, the solubility at 24 h in the data set “physchem” (hydroxypropyl-α-cyclodextrin in water, Solubility in solubilizer solution, Table 1, hydroxypropyl-α-cyclodextrin in water, degree of substitution 6-7) amounted to 0.3 mg/mL (≈ 1.36 mM); in the data set “physchem” (setting [4]) it was 3 mg/mL (≈ 13.6 mM); in “physchem” (hydroxypropyl-γ-cyclodextrin in water, Solubility in solubilizer solution, Table 1, hydroxypropyl-γ-cyclodextrin in water, degree of substitution 6-7), 0.2 mg/mL (≈ 0.908 mM).

The molecule `C[C@H]1O[C@@H](O[C@H]2[C@@H](O)C[C@H](O[C@H]3[C@@H](O)C[C@H](O[C@H]4CC[C@@]5(C)[C@H](CC[C@@H]6[C@@H]5C[C@@H](O)[C@]5(C)[C@@H](C7=CC(=O)OC7)CC[C@]65O)C4)O[C@@H]3C)O[C@@H]2C)C[C@H](O)[C@@H]1O` [digoxin] returned a solubility at 24 h in “physchem” (setting [4]) of 45 mg/mL (≈ 57.6 mM). Besides, in data set [1] (setting [3]), the Solubility in water is 0.07 mg/mL (≈ 0.0896 mM).

`CC1=C(/C=C/C(C)=C/C=C/C(C)=C/CO)C(C)(C)CCC1` [retinol]: the concentration in solution in the data set “physchem” (setting [2]) (solubility at 24 h) was 5.5 mg/mL (≈ 19.2 mM). In “physchem”, this molecule came in with a solubility of under 0.1 mg/mL.

In “physchem” (setting [4]), `C=C1CC[C@H](O)C/C1=C/C=C1\CCC[C@]2(C)[C@@H]([C@H](C)CCCC(C)C)CC[C@@H]12` [cholecalciferol] displayed a solubility at 24 h of 10 mg/mL (≈ 26 mM). Besides, the solubility in the data set “physchem” is under 0.23 mg/mL.

Regarding `CC(=O)[C@H]1CC[C@H]2[C@@H]3CCC4=CC(=O)CC[C@]4(C)[C@H]3CC[C@]12C` [progesterone], the solubility at 24 h came to 38 mg/mL (≈ 121 mM) in “physchem” (setting [6]); 14 mg/mL (≈ 44.5 mM) in the data set “physchem” (setting [7]); 18 mg/mL (≈ 57.2 mM) in “physchem” (setting [8]); 30 mg/mL (≈ 95.4 mM) in “physchem” (setting [9]); 44 mg/mL (≈ 140 mM) in the data set “physchem” (setting [10]); 35 mg/mL (≈ 111 mM) in the data set “physchem” (setting [11]). Besides, the solubility at 24 h in the data set “physchem” (setting [12]) was found to be 23 mg/mL (≈ 73.1 mM); in the data set “physchem” (setting [4]) it was 34 mg/mL (≈ 108 mM). Also, in data set [1] (setting [13]), the Solubility in water is 0.015 mg/mL (≈ 0.0477 mM).

For `Cl.Clc1cccc(Cl)c1NC1=NCCN1` [cloridine hydrochloride], in the data set “physchem” (Table 1, hydroxypropyl-β-cyclodextrin in water, degree of substitution 6-7, 1440 min), the “Solubility in solubilizer solution” value was 83.0 mg/mL.

The molecule `CC(=O)Nc1ccc(O)cc1` [acetamidophen] came in with a solubility at 24 h in “physchem” (setting [4]) of 67 mg/mL (≈ 443 mM). The molecule further had a solubility in the data set “physchem” of 11 mg/mL (≈ 72.8 mM).

Regarding `CN1CCc2cccc3c2[C@H]1Cc1ccc(O)c(O)c1-3` [apomorphine], in the data set “physchem” (setting [2]), the concentration in solution (solubility at 24 h) came to 116 mg/mL (≈ 434 mM). In “physchem”, the concentration in solution (solubility) came to 20 mg/mL (≈ 74.8 mM).

For the molecule `C#C[C@]1(O)CC[C@H]2[C@@H]3CCC4=CC(=O)CC[C@]4(C)[C@H]3CC[C@@]21C` [ethisterone], the solubility at 24 h in the data set “physchem” (setting [4]) is 0.5 mg/mL (≈ 1.6 mM). Further, the solubility in the data set “physchem” is under 0.2 mg/mL.

Take `CC1=C(/C=C/C(C)=C/C=C/C(C)=C/C(=O)O)C(C)(C)CCC1` [retinoic acid, all trans]: in “physchem” (setting [5]), the “Solubility in solubilizer solution” value stood at 0.8 mg/mL (≈ 2.66 mM). This molecule also came in with a solubility in “physchem” of under 0.07 mg/mL.

For the molecule `NS(=O)(=O)c1cc2c(cc1C(F)(F)F)NCNS2(=O)=O` [hydroflumethiazide], the concentration in solution in the data set “physchem” (setting [2]) (solubility at 24 h) came to 9.3 mg/mL (≈ 28.1 mM). Also, the concentration in solution in “physchem” (solubility) was 0.3 mg/mL (≈ 0.906 mM).

Take `COc1ccc2c(c1)c(CC(=O)O)c(C)n2C(=O)c1ccc(Cl)cc1` [indomethacin]: in “physchem” (setting [4]), the solubility at 24 h is 4.2 mg/mL (≈ 11.7 mM). The Solubility in water in data set [1] (setting [3]) is 0.02 mg/mL (≈ 0.0559 mM).

Regarding `C[C@]12CC[C@@H]3c4ccc(O)cc4CC[C@H]3[C@@H]1C[C@@H](O)[C@@H]2O` [estriol], in “physchem” (setting [4]), the solubility at 24 h was found to be 41 mg/mL (≈ 142 mM). Besides, the solubility in the data set “physchem” was under 1.3 mg/mL.

Consider `C[C@]12CCC(=O)C=C1CC[C@@H]1[C@@H]2CC[C@@]2(C)[C@H]1CC[C@]2(C)O` [17-methyltestosterone], for which the concentration in solution in “physchem” (setting [4]) (solubility at 24 h) was 39 mg/mL (≈ 129 mM). In the data set “physchem”, the solubility is under 0.17 mg/mL.

`NS(=O)(=O)c1cc(C2(O)NC(=O)c3ccccc32)ccc1Cl` (stereo not shown) [chlorthalidone]: the solubility at 24 h in the data set “physchem” (setting [2]) turned out to be 10.5 mg/mL (≈ 31 mM). This molecule also had a solubility in “physchem” of 0.12 mg/mL (≈ 0.354 mM).

For `C[C@]12CC[C@H]3[C@@H](CCC4=CC(=O)CC[C@@]43C)[C@@H]1CC[C@@H]2O` [testosterone], the solubility at 24 h was 24 mg/mL (≈ 83.2 mM) in the data set “physchem” (setting [6]); 24 mg/mL (≈ 83.2 mM) in the data set “physchem” (setting [7]); 9 mg/mL (≈ 31.2 mM) in the data set “physchem” (setting [8]); 56 mg/mL (≈ 194 mM) in the data set “physchem” (setting [9]); 62 mg/mL (≈ 215 mM) in the data set “physchem” (setting [10]); 40 mg/mL (≈ 139 mM) in the data set “physchem” (setting [11]). Moreover, the solubility at 24 h in “physchem” (setting [12]) is 23 mg/mL (≈ 79.7 mM); in “physchem” (setting [4]), 38 mg/mL (≈ 132 mM). In data set [1] (setting [13]), the Solubility in water is 0.026 mg/mL (≈ 0.0901 mM).
